Active and inactive are the calls of the source. The calls are words filed in the database; no cut-off is given here.
Columns and labels:
MIA PaCa-2 [1] = assay: Downregulation of histone 4H4 mRNA expression in human MIAPaCa2 cells at 50 uM after 72 hrs by quantitative RT-PCR analysis; assay type: functional, cell-based
[2] = Drug uptake in human HEK293 cell nucleus using BODIPY labeled compound at 500 uM after 16 hrs by […] microscopic analysis; assay type: ADME, cell-based; conditions: hek293, 16 h
HEK293 [3] = assay: Downregulation of histone H4AB mRNA expression in human HEK293 cells at 250 uM after 72 hrs by quantitative RT-PCR analysis; assay type: ADME, cell-based; conditions: hek293, 72 h
MIA PaCa-2 [4] = assay: Downregulation of histone H4L mRNA expression in human MIAPaCa2 cells at 50 uM after 72 hrs by quantitative RT-PCR analysis; assay type: functional, cell-based
MIA PaCa-2 [5] = assay: Downregulation of histone H4D mRNA expression in human MIAPaCa2 cells at 50 uM after 72 hrs by quantitative RT-PCR analysis; assay type: functional, cell-based
HEK293 [6] = assay: Selectivity ratio of GI50 for human HEK293 cells to GI50 for human MIAPaCa2 cells
MIA PaCa-2 [7] = assay: Growth inhibition of human MIAPaCa2 cells after 6 days by MTS assay; assay type: functional; conditions: MIA PaCa-2, 144 h
MIA PaCa-2 [8] = assay: Downregulation of histone HJK mRNA expression in human MIAPaCa2 cells at 50 uM after 72 hrs by quantitative RT-PCR analysis; assay type: functional, cell-based
MIA PaCa-2 [9] = assay: Downregulation of histone H4C mRNA expression in human MIAPaCa2 cells at 50 uM after 72 hrs by quantitative RT-PCR analysis; assay type: functional, cell-based
HEK293 [10] = assay: Downregulation of histone HJK mRNA expression in human HEK293 cells at 250 uM after 72 hrs by quantitative RT-PCR analysis; assay type: ADME, cell-based; conditions: hek293, 72 h
HEK293 [11] = assay: Downregulation of histone H4E mRNA expression in human HEK293 cells at 250 uM after 72 hrs by quantitative RT-PCR analysis; assay type: ADME, cell-based; conditions: hek293, 72 h
MIA PaCa-2 [12] = assay: Downregulation of histone H4A mRNA expression in human MIAPaCa2 cells at 50 uM after 72 hrs by quantitative RT-PCR analysis; assay type: functional, cell-based
HEK293 [13] = assay: Downregulation of histone 4H4 mRNA expression in human HEK293 cells at 250 uM after 72 hrs by quantitative RT-PCR analysis; assay type: ADME, cell-based; conditions: hek293, 72 h
HEK293 [14] = assay: Downregulation of histone H4A mRNA expression in human HEK293 cells at 250 uM after 72 hrs by quantitative RT-PCR analysis; assay type: ADME, cell-based; conditions: hek293, 72 h
HEK293 [15] = assay: Downregulation of histone H4H mRNA expression in human HEK293 cells at 250 uM after 72 hrs by quantitative RT-PCR analysis; assay type: ADME, cell-based; conditions: hek293, 72 h
HEK293 [16] = assay: Downregulation of histone H4B mRNA expression in human HEK293 cells at 250 uM after 72 hrs by quantitative RT-PCR analysis; assay type: ADME, cell-based; conditions: hek293, 72 h
MIA PaCa-2 [17] = assay: Downregulation of histone H4E mRNA expression in human MIAPaCa2 cells at 50 uM after 72 hrs by quantitative RT-PCR analysis; assay type: functional, cell-based
MIA PaCa-2 [18] = assay: Downregulation of histone H4B mRNA expression in human MIAPaCa2 cells at 50 uM after 72 hrs by quantitative RT-PCR analysis; assay type: functional, cell-based
HEK293 [19] = assay: Downregulation of histone H4D mRNA expression in human HEK293 cells at 250 uM after 72 hrs by quantitative RT-PCR analysis; assay type: ADME, cell-based; conditions: hek293, 72 h
[20] = Growth inhibition of human HEK293 cells after 6 days by MTS assay; assay type: cell-based
MIA PaCa-2 [21] = assay: Downregulation of histone H4AB mRNA expression in human MIAPaCa2 cells at 50 uM after 72 hrs by quantitative RT-PCR analysis; assay type: functional, cell-based
MIA PaCa-2 [22] = assay: Downregulation of histone H4H mRNA expression in human MIAPaCa2 cells at 50 uM after 72 hrs by quantitative RT-PCR analysis; assay type: functional, cell-based
HEK293 [23] = assay: Downregulation of histone H4C mRNA expression in human HEK293 cells at 250 uM after 72 hrs by quantitative RT-PCR analysis; assay type: ADME, cell-based; conditions: hek293, 72 h
HEK293 [24] = assay: Downregulation of histone H4L mRNA expression in human HEK293 cells at 250 uM after 72 hrs by quantitative RT-PCR analysis; assay type: ADME, cell-based; conditions: hek293, 72 h

CN(C)CCCNC(=O)CCNC(=O)c1cc(NC(=O)c2cc(NC(=O)c3cc(NC(=O)c4cc(NC(=O)[C@@H](CCNC(=O)CCCc5ccc(N(CCCl)CCCl)cc5)NC(=O)c5nc(NC(=O)CCNC(=O)c6nc(NC(=O)c7nccn7C)cn6C)cn5C)cn4C)cn3C)cn2C)cn1C
Activity (MIA PaCa-2 [1]): Active | Drug uptake [2]: Active | Activity (HEK293 [3]): Non-toxic | Activity (MIA PaCa-2 [4]): Active | Activity (MIA PaCa-2 [5]): Active | RatioGI50 (HEK293 [6]): 25 | GI50 (MIA PaCa-2 [7]): 0.016 µM | Activity (MIA PaCa-2 [8]): Active | Activity (MIA PaCa-2 [9]): Active | Activity (HEK293 [10]): Non-toxic | Activity (HEK293 [11]): Non-toxic | Activity (MIA PaCa-2 [12]): Active | Activity (HEK293 [13]): Non-toxic | Activity (HEK293 [14]): Non-toxic | Activity (HEK293 [15]): Non-toxic | Activity (HEK293 [16]): Non-toxic | Activity (MIA PaCa-2 [17]): Active | Activity (MIA PaCa-2 [18]): Active | Activity (HEK293 [19]): Non-toxic | GI50 at 144 h [20]: 0.4 µM | Activity (MIA PaCa-2 [21]): Active | Activity (MIA PaCa-2 [22]): Active | Activity (HEK293 [23]): Non-toxic | Activity (HEK293 [24]): Non-toxic

— ChEMBL document CHEMBL2057120, “Chromatin structure determines accessibility of a hairpin polyamide-chlorambucil conjugate at histone H4 genes in pancreatic cancer cells” (Bioorg Med Chem Lett, 2012)
